# According to US11400063B2, “Early administration of low-dose colchicine after myocardial infarction” (INSTITUT DE CARDIOLOGIE DE MONTREAL, priority 2019, dated 2022):
# Several values for one entry are separate records, joined by “and”; a condition that tells them apart may be missing. Equal entries are not always repeated.
# Test system: patients recruited within 30 days after a myocardial infarction
# Assay: COLCOT randomized double-blind trial, efficacy end points, colchicine 0.5 mg once daily vs placebo
# Format: in vivo, human
# Settings: for Total primary endpoint events, Rate Ratio (95% CI): Negative binomial model, marginal rate ratio; for Rate of primary endpoint events per 100 patient-months: first and recurrent events
# Description: We performed a randomized, double-blind trial involving patients recruited within 30 days after a myocardial infarction. The patients were randomly assigned to receive either low-dose colchicine (0.5 mg once daily) or placebo. A total of 4745 patients were enrolled; 2386 patients were assigned to the colchicine group, and 2379 to the placebo group. Patients were followed for a median of 22.6 months.
# The primary efficacy end point was a composite of death from cardiovascular causes, resuscitated cardiac arrest, myocardial infarction (e.g., acute myocardial infraction or type II myocardial infarction), stroke, or urgent hospitalization for angina leading to coronary revascularization. The components of the primary end point and safety were also assessed.
# COLCOT was an international multicenter, randomized, double-blinded trial that randomly assigned patients to receive either low-dose colchicine (0.5 mg once daily) or placebo. The study protocol and main results have been published (see, Tardif et al., N Engl J Med 2019). […] Main exclusion criteria were severe heart failure, reduced left ventricular ejection fraction (<35%), recent stroke (<3 months), type 2 MI, recent (<3 years) or planned coronary artery bypass graft (CABG), history of cancer (<3 years), and inflammatory bowel disease or chronic diarrhea. All patients enrolled in the trial benefited from percutaneous coronary intervention whenever indicated and guidelines-directed management of CV disease prior to randomization (see. Tardif et al., N Engl J Med 2019).
# Clinical follow-up consisted of evaluations at 1 and 3 months after randomization and every 3 months thereafter. An independent clinical endpoint committee, blinded to trial-group assignment, adjudicated clinical endpoints. The trial was locally approved by the various institutional review boards, and all patients signed a written informed consent before enrollment.
# The primary efficacy endpoint was a composite of CV death, resuscitated cardiac arrest, MI, stroke, or urgent hospitalization for angina requiring coronary revascularization. The secondary endpoints consisted of the components of the primary efficacy endpoint, all-cause death, and a composite of CV death, resuscitated cardiac arrest, MI, or stroke. Exploratory endpoints included all coronary revascularizations, including both elective and urgent coronary revascularizations.
# The primary efficacy endpoint was a composite of cardiovascular death, MI, ischemic stroke, and urgent coronary revascularization. Secondary efficacy endpoints consisted of the components of the primary endpoint, composite of cardiovascular death, MI, and ischemic stroke, as well as deep vein thrombosis or pulmonary embolus, and atrial fibrillation (AF). To maximize consistency in pooling efficacy endpoints among trials, the primary and secondary composite efficacy and stroke endpoints in COLCOT were modified to meet the definition of primary and stroke endpoints of the LoDoCo2 trial. Therefore, adjudicated events of resuscitated cardiac arrest and non-ischemic stroke in COLCOT were excluded from the pooled primary endpoint. The component endpoint of stroke was also restricted to include only ischemic strokes. Incidence rates and hazards ratios (HRs) were calculated for the new primary composite endpoint and ischemic stroke endpoint using individual patient data from COLCOT.
# The COLCOT trial was performed as follows. A randomized, double-blind trial involving patients recruited within 30 days after a myocardial infarction was performed. The patients were randomly assigned to receive either low-dose colchicine (0.5 mg once daily) or placebo. A total of 4745 patients were enrolled; 2386 patients were assigned to the colchicine group, and 2379 to the placebo group. […]
# [1] = COLCOT endpoint modified to LoDoCo2 definition
# [2] = intention-to-treat population, listed as colchicine
# [3] = intention-to-treat, colchicine vs placebo
# [4] = intention-to-treat, colchicine vs placebo, listed as colchicine
compound,measurement,setting,value
"COc1cc2c(c(OC)c1OC)-c1ccc(OC)c(=O)cc1[C@@H](NC(C)=O)CC2 [Colchicine, colchicine]",Total number of primary endpoint events (first and recurrent),52949 patient-months of follow-up,154
same,"Primary efficacy composite endpoint, no. of patients with event/total no. of patients",All patients,131/2366
same,"Total primary endpoint events, Hazard Ratio (95% CI)",Andersen-Gill model,0.69 (0.54; 0.88)
same,"Primary composite outcome (cardiovascular mortality, myocardial infarction, ischemic stroke, urgent revascularization), Events %",[1],(5.5%)
same,"Primary composite outcome (cardiovascular mortality, myocardial infarction, ischemic stroke, urgent revascularization), HR (95% CI)",[1],0.77 (0.61-0.97)
same,"Primary composite outcome (cardiovascular mortality, myocardial infarction, ischemic stroke, urgent revascularization), Events N","COLCOT endpoint modified to LoDoCo2 definition, N = 2366",130 N
same,"Ischemic stroke, Events %","COLCOT, only ischemic strokes",0.2%
same,"Ischemic stroke, Events N","COLCOT, only ischemic strokes",4 N
same,"Ischemic stroke, HR (95% CI)","COLCOT, only ischemic strokes",0.25 (0.08-0.75)
same,"Ischemic stroke, HR (95% CI)","COLCOT, only ischemic strokes, listed as colchicine",0.25
same,Number of patients with 0 primary endpoint events per patient,N = 2366,2235
same,Number of patients with 1 primary endpoint event per patient,N = 2366,111
same,Number of patients with 2 primary endpoint events per patient,N = 2366,18
same,Number of patients with 3 primary endpoint events per patient,N = 2366,1
same,Number of patients with 4 primary endpoint events per patient,N = 2366,1
same,"Total primary endpoint events, Rate Ratio (95% CI)",,0.66 (0.51; 0.86)
same,"Total primary endpoint events, Rate Ratio (95% CI)",listed as colchicine,0.66
same,"Total primary endpoint events, Hazard Ratio (95% CI)","WLW model, 1st Event",0.77 (0.61; 0.96)
same,"Total primary endpoint events, Hazard Ratio (95% CI)","WLW model, 2nd Event",0.73 (0.48; 1.11)
same,"Total primary endpoint events, Hazard Ratio (95% CI)","WLW model, 3rd Event",0.64 (0.37; 1.10)
same,"Total primary endpoint events, Hazard Ratio (95% CI)","WLW model, Average",0.77 (0.61; 0.96)
same,Rate of primary endpoint events per 100 patient-months,,0.29 per 100 patient-months
same,Rate of primary endpoint events per 100 patient-months,listed as colchicine,029 per 100 patient-months
same,"Atrial fibrillation, number of patients",intention-to-treat population,36 number
same,"Atrial fibrillation, percent of patients",intention-to-treat population,(1.5) percent
same,"Death from cardiovascular causes, number of patients",intention-to-treat population,20 number
same,"Death, number of patients",intention-to-treat population,43 number
same,"Death, percent of patients",intention-to-treat population,(1.8) percent
same,"Deep venous thrombosis or pulmonary embolus, number of patients",intention-to-treat population,10 number
same,"Deep venous thrombosis or pulmonary embolus, percent of patients",intention-to-treat population,(0.4) percent
same,"Myocardial infarction, number of patients",intention-to-treat population,89 number
same,"Resuscitated cardiac arrest, number of patients",intention-to-treat population,5 number
same,"Resuscitated cardiac arrest, percent of patients",intention-to-treat population,(0.2) percent
same,"Secondary composite end point, percent of patients",intention-to-treat population,(4.7) percent
same,"Stroke, number of patients",intention-to-treat population,5 number
same,"Stroke, percent of patients",intention-to-treat population,(0.2) percent
same,"Urgent hospitalization for angina leading to revascularization, number of patients",intention-to-treat population,25 number
same,"Primary composite end point, number of patients","intention-to-treat population, N = 2366, median follow-up 22.6 months",131 number
same,"Primary composite end point, percent of patients",[2],5.5%
same,"Secondary composite end point, percent of patients",[2],4.7%
same,"Atrial fibrillation, Hazard Ratio (95% CI)",[3],0.93 (0.59-1.46)
same,"Death from cardiovascular causes, Hazard Ratio (95% CI)",[3],0.84 (0.46-1.52)
same,"Death, Hazard Ratio (95% CI)",[3],0.98 (0.64-1.49)
same,"Deep venous thrombosis or pulmonary embolus, Hazard Ratio (95% CI)",[3],1.43 (0.54-3.75)
same,"Myocardial infarction, Hazard Ratio (95% CI)",[3],0.91 (0.68-1.21)
same,"Primary composite end point, Hazard Ratio (95% CI)",[3],0.77 (0.61-0.96)
same,"Resuscitated cardiac arrest, Hazard Ratio (95% CI)",[3],0.83 (0.25-2.73)
same,"Secondary composite end point, Hazard Ratio (95% CI)",[3],0.85 (0.66-1.10)
same,"Stroke, Hazard Ratio (95% CI)",[3],0.26 (0.10-0.70)
same,"Urgent hospitalization for angina leading to revascularization, Hazard Ratio (95% CI)",[3],0.50 (0.31-0.81) and 0.50 (0.31.-0.81)
same,"Death from cardiovascular causes, Hazard Ratio (95% CI)",[4],0.84
same,"Myocardial infarction, Hazard Ratio (95% CI)",[4],0.91
same,"Primary composite end point, Hazard Ratio (95% CI)",[4],0.77
same,"Resuscitated cardiac arrest, Hazard Ratio (95% CI)",[4],0.83
same,"Secondary composite end point, Hazard Ratio (95% CI)",[4],0.85
same,"Stroke, Hazard Ratio (95% CI)",[4],0.26
same,"Urgent hospitalization for angina leading to revascularization, Hazard Ratio (95% CI)",[4],0.50
same,"Secondary composite end point, number of patients","intention-to-treat, death from cardiovascular causes, resuscitated cardiac arrest, myocardial infarction, and stroke",111 number
same,reduction of the risk of ischemic CV events,"main COLCOT results, post-MI setting",23%
same,"Time to first primary endpoint, Adjusted Hazard Ratio (95% CI)","multivariable Cox regression model, colchicine vs. placebo, 4745 observations",0.78 (0.62-0.98)
same,"MI, % of patients",per-protocol population,(3.4%)
same,"MI, no. of patients",per-protocol population,77 no.
same,"Primary endpoint, % of patients",per-protocol population,(5.1%)
